Test [1] addresses T1, YfiNGGDEF (Pseudomonas aeruginosa, UniProt Q9I4L5).
T1 construct: gene tpbB
As to the kind of experiment: isothermal titration calorimetry. The class given is binding. An excerpt: isothermal titration calorimetry on YfiNGGDEF

Test [2] deals with T2, YfiNHAMP-GGDEF (Pseudomonas aeruginosa, UniProt Q9I4L5).
T2 construct: gene tpbB; cytosolic HAMP-GGDEF portion, residues 183-435, C-terminal His-tag (pET24b), synthetic gene, E. coli BL21(DE3), about 28 kDa, monomeric by AUC
As to the kind of experiment: isothermal titration calorimetry. The format is binding. The source says: isothermal titration calorimetry on YfiNHAMP-GGDEF
(In ITC the heat of successive injections is recorded.)

As usually defined, the Kd is a measure of binding affinity in units of concentration.

T2 sequence (Q9I4L5 183-435): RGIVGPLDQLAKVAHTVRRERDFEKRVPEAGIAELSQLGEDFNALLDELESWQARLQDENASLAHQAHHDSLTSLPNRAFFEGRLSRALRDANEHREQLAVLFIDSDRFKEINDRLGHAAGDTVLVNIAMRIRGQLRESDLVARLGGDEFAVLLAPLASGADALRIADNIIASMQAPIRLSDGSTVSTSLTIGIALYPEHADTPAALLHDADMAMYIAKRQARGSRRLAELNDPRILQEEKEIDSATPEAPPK
T1 sequence (Q9I4L5 232-435): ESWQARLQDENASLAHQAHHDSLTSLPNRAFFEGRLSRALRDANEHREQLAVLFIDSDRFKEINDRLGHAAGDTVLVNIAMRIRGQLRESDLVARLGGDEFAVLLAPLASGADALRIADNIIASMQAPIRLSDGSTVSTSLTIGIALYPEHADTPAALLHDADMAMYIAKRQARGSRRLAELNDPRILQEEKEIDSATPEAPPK

In the case of `Nc1nc2c(ncn2[C@@H]2O[C@H](COP(=O)(O)OP(=O)(O)OP(=O)(O)O)[C@@H](O)[C@H]2O)c(=O)[nH]1` [GTP], the dissociation constant (Kd) in test [1] worked out at 0.067 µM; in test [2], 0.18 µM.

Source of the values: paper PMC3838380, “Investigating the Allosteric Regulation of YfiN from Pseudomonas aeruginosa: Clues from the Structure of the Catalytic Domain” (PLoS ONE, 2013).
